“And” between values parts separate entries of the source, which are not always exact repeats. Identical values can stand only once.
What was measured:
[1] = Pharmacokinetics in Sprague-Dawley rats (single dose i.v. and p.o.); assay type: in vivo, male Sprague-Dawley rats
Description: (§1) Pharmacokinetic studies were performed in male CD-1 (50 mg/kg i.p. or orally (p.o.)) or female nude mice (50 mg/kg i.v. or i.p.), male Sprague-Dawley rats (1, 5, 20 and 50 mg/kg i.v. and 100 mg/kg, p.o.), beagle dogs (20 mg/kg, i.v.) and cynomologus monkeys (20 mg/kg i.v.). Plasma TH302 concentrations were analyzed using a LC/MS method and the pharmacokinetic parameters computed using a noncompartmental method. Interspecies scaling was performed according to standard methods.
TH302 was dissolved in 50% PEG400/Saline to obtain a final concentration of 25 mg/mL, and then was further diluted to yield 25, 10, 2.5 and 0.5 mg/mL formulations of TH302 (pH The formulations were prepared just before dosing. The concentration of TH302 in dosing solution was confirmed by HPLC-UV. Male Sprague Dawley rats (body weight: 200 g to 230 g) were used in this study. Before the pharmacokinetic studies, animals were randomly assigned to four treatment groups cannulated in the carotid artery for serial blood sampling. All rats were administered a single intravenous bolus dose over one minute via the tail vein. The concentrations of TH302 in plasma were determined using a high performance liquid chromatography/mass spectrometry (HPLC/MS/MS) method. […]

[2] = Pharmacokinetics after repeated administration (Q7D×3) to dogs; assay type: in vivo; settings: dog; for clearance / half-life / AUC / Cmax / Vd: TH302 in dogs; for half-life: read-out: Half-Life (converted); for Cmax: read-out: Cmax; for Vd: read-out: Vss
Excerpt: These changes were reversible.

[3] = Pharmacokinetics in CD-1 mice; assay type: in vivo; settings: male, CD-1, mouse, plasma, ip, 50 mg/kg, 50 mg/kg i.p., read-out: terminal half-lives (t1/2)
Description: as §1

[4] = rats, 1 mg/kg i.v. bolus, individual animals, 1 mg/kg
[5] = rats, 5 mg/kg i.v. bolus, individual animals, 5 mg/kg
[6] = rats, 20 mg/kg i.v. bolus, individual animals, 20 mg/kg
[7] = rats, 50 mg/kg i.v. bolus, individual animals, 50 mg/kg
[8] = in vivo, 16 mg/kg Q7D×3, Day 15
[9] = plasma, intravenous, 4 mg/kg Q7D×3, Day 15
[10] = plasma, intravenous, 8 mg/kg Q7D×3, Day 15
[11] = plasma, intravenous, 16 mg/kg Q7D×3, Day 15

Cn1c(COP(=O)(NCCBr)NCCBr)cnc1[N+](=O)[O-] [TH302]
Vd ([1]; male, Sprague-Dawley, rat, plasma, iv, rats, i.v. dose 1-50 mg/kg, range of means, read-out: mean Vss): 1.67 to 5.09 L/kg | half-life ([1]; male, Sprague-Dawley, rat, plasma, iv, rats, i.v. dose 1-50 mg/kg, range of means, read-out: mean terminal plasma t1/2): 79.2 to 262 min | Tmax ([1]; male, Sprague-Dawley, rat, plasma, iv, rats, 1 mg/kg i.v. bolus, individual animals): 1.8 min | Tmax ([1]; male, Sprague-Dawley, rat, plasma, iv, rats, 5 mg/kg i.v. bolus, individual animals): 1.8 min | Tmax ([1]; male, Sprague-Dawley, rat, plasma, iv, rats, 20 mg/kg i.v. bolus, individual animals): 1.8 min | Tmax ([1]; male, Sprague-Dawley, rat, plasma, iv, rats, 50 mg/kg i.v. bolus, individual animals): 1.8 min | Vβ ([1]; rats, 1 mg/kg i.v. bolus, MEAN): 13.55 L/kg | AUC(0-t) [1, 4]: 273.70 ng·h/mL and 202.22 ng·h/mL | AUC(0-∞) [1, 4]: 282.01 ng·h/mL and 203.34 ng·h/mL | CL [1, 4]: 59.2 mL/min/kg | Cmax [1, 4]: 990.12 ng/mL and 732.20 ng/mL | MRT [1, 4]: 61.8 min | T1/2 [1, 4]: 130 min and 131 min | Vss [1, 4]: 2.82 L/kg | Vβ [1, 4]: 14.19 L/kg and 11.03 L/kg and 15.45 L/kg | Vβ ([1]; rats, 5 mg/kg i.v. bolus, MEAN): 30.66 L/kg | AUC(0-t) [1, 5]: 868.22 ng·h/mL | AUC(0-∞) [1, 5]: 919.39 ng·h/mL | CL [1, 5]: 90.7 mL/min/kg | Cmax [1, 5]: 3803.81 ng/mL | MRT [1, 5]: 27 min and 81.6 min | T1/2 [1, 5]: 73.2 min and 377 min | Vβ [1, 5]: 11.99 L/kg and 49.33 L/kg | Vβ ([1]; rats, 20 mg/kg i.v. bolus, MEAN): 41.04 L/kg | AUC(0-t) [1, 6]: 3380.61 ng·h/mL and 3597.80 ng·h/mL | AUC(0-∞) [1, 6]: 3387.13 ng·h/mL and 3618.51 ng·h/mL | CL [1, 6]: 92.2 mL/min/kg | Cmax [1, 6]: 12009.10 ng/mL and 15053.50 ng/mL | MRT [1, 6]: 24.6 min and 22.2 min | T1/2 [1, 6]: 564 min and 64.8 min and 159 min | Vss [1, 6]: 1.68 L/kg | Vβ [1, 6]: 92.86 L/kg and 9.16 L/kg and 21.10 L/kg | Vβ ([1]; rats, 50 mg/kg i.v. bolus, MEAN): 11.41 L/kg | AUC(0-t) [1, 7]: 8482.72 ng·h/mL and 8083.24 ng·h/mL | AUC(0-∞) [1, 7]: 8488.15 ng·h/mL and 8102.61 ng·h/mL | CL [1, 7]: 98.2 mL/min/kg and 103 mL/min/kg | Cmax [1, 7]: 37277.10 ng/mL and 32033.40 ng/mL | MRT [1, 7]: 18 min and 15.6 min | T1/2 [1, 7]: 46.2 min and 56.4 min and 134 min | Vss [1, 7]: 1.68 L/kg and 1.70 L/kg | Vβ [1, 7]: 6.28 L/kg and 7.99 L/kg and 19.94 L/kg | time of mean peak plasma concentration ([1]; rats, 100 mg/kg p.o., first sampled time point): 15 min | linearity of pharmacokinetics ([1]; rats, 1, 5, 20 and 50 mg/kg i.v.): linear pharmacokinetics | clearance ([2]; in vivo, 4 mg/kg Q7D×3, Day 15): 80.7 mL/min/kg | half-life ([2]; in vivo, 4 mg/kg Q7D×3, Day 15): 16.3 min | clearance ([2]; in vivo, 8 mg/kg Q7D×3, Day 15): 72.5 mL/min/kg | half-life ([2]; in vivo, 8 mg/kg Q7D×3, Day 15): 15.2 min | AUC [2, 8]: 4260 ng·h/mL | clearance [2, 8]: 63.7 mL/min/kg | half-life [2, 8]: 17 min | AUC [2, 9]: 853 ng·h/mL | Cmax [2, 9]: 1580 ng/mL | Vd [2, 9]: 2.1 L/kg | AUC [2, 10]: 1910 ng·h/mL | Cmax [2, 10]: 3650 ng/mL | Vd [2, 10]: 1.78 L/kg | Cmax [2, 11]: 7100 ng/mL | Vd [2, 11]: 1.93 L/kg | AUC at 15 day ([2]; plasma, intravenous, dogs, 8 mg/kg dose of TH302, read-out: drug exposure (AUC of TH302)): ~1910 ng·h/mL | half-life [3]: 7.9 min

— patent US8552048B2, “Phosphoramidate alkylator prodrugs for the treatment of cancer” (Threshold Pharmaceuticals, Inc., priority 2006, dated 2013)
